Measured values as given in PubChem BioAssay (NCI).
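48-hour exposure; five concentrations; linearly interpolated endpoints. TGI marks complete inhibition of growth.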

What was measured:
Test in all cases: NCI tumour cell line growth inhibition, 48 h
HOP-18 NSCLC = system: HOP-18 NSCLC
DMS 273 small cell lung = system: DMS 273 small cell lung
A549 NSCLC = system: A549 NSCLC
KM12 colon = system: KM12 colon
NCI-H460 lung = system: NCI-H460 lung
HCT-116 colon = system: HCT-116 colon
M14 melanoma = system: M14 melanoma
HCT-15 colon = system: HCT-15 colon
XF 498 CNS = system: XF 498 CNS
TK-10 renal = system: TK-10 renal
SF-539 CNS = system: SF-539 CNS
A498 renal = system: A498 renal
SW-620 colon = system: SW-620 colon
UACC-257 melanoma = system: UACC-257 melanoma
U251 CNS = system: U251 CNS
HOP-92 NSCLC = system: HOP-92 NSCLC
HL-60(TB) leukemia = system: HL-60(TB) leukemia
RXF 393 renal = system: RXF 393 renal
SK-OV-3 ovarian = system: SK-OV-3 ovarian
HOP-62 NSCLC = system: HOP-62 NSCLC
SK-MEL-2 melanoma = system: SK-MEL-2 melanoma
SK-MEL-28 melanoma = system: SK-MEL-28 melanoma
SK-MEL-5 melanoma = system: SK-MEL-5 melanoma
RPMI-8226 leukemia = system: RPMI-8226 leukemia
OVCAR-8 ovarian = system: OVCAR-8 ovarian
K-562 leukemia = system: K-562 leukemia
NCI-H522 lung = system: NCI-H522 lung
MOLT-4 leukemia = system: MOLT-4 leukemia
IGROV1 ovarian = system: IGROV1 ovarian
LXFL 529 NSCLC = system: LXFL 529 NSCLC
NCI-H23 lung = system: NCI-H23 lung
DMS 114 small cell lung = system: DMS 114 small cell lung
NCI-H226 lung = system: NCI-H226 lung
SF-295 CNS = system: SF-295 CNS
KM20L2 colon = system: KM20L2 colon
LOX IMVI melanoma = system: LOX IMVI melanoma
786-0 renal = system: 786-0 renal
OVCAR-5 ovarian = system: OVCAR-5 ovarian
SF-268 CNS = system: SF-268 CNS
SNB-19 CNS = system: SNB-19 CNS
SN12C renal = system: SN12C renal
CCRF-CEM leukemia = system: CCRF-CEM leukemia
SR leukemia = system: SR leukemia
UACC-62 melanoma = system: UACC-62 melanoma
M19-MEL melanoma = system: M19-MEL melanoma
SNB-78 CNS = system: SNB-78 CNS
DLD-1 colon = system: DLD-1 colon
SNB-75 CNS = system: SNB-75 CNS
OVCAR-4 ovarian = system: OVCAR-4 ovarian
CAKI-1 renal = system: CAKI-1 renal
MALME-3M melanoma = system: MALME-3M melanoma
ACHN renal = system: ACHN renal
UO-31 renal = system: UO-31 renal
EKVX NSCLC = system: EKVX NSCLC
HCC-2998 colon = system: HCC-2998 colon
RXF-631 renal = system: RXF-631 renal
HT29 colon = system: HT29 colon
OVCAR-3 ovarian = system: OVCAR-3 ovarian
COLO 205 colon = system: COLO 205 colon

In the case of `O=c1nc(N2CCCC2)nc(N2CCCC2)s1`, the TGI (HOP-18 NSCLC) is reported as > 100 µM, the TGI (DMS 273 small cell lung) is reported as > 100 µM and the TGI (A549 NSCLC) is reported as > 100 µM. The TGI (KM12 colon) was > 100 µM, the TGI (NCI-H460 lung) was > 100 µM and the TGI (HCT-116 colon) was > 100 µM. The TGI (M14 melanoma) was > 100 µM, the TGI (HCT-15 colon) was > 100 µM and the TGI (XF 498 CNS) was > 100 µM. The TGI (TK-10 renal) was > 100 µM, the TGI (SF-539 CNS) was > 100 µM and the TGI (A498 renal) was > 100 µM. The TGI (SW-620 colon) was > 100 µM, the TGI (UACC-257 melanoma) was > 100 µM and the TGI (U251 CNS) was > 100 µM. The TGI (HOP-92 NSCLC) was > 100 µM, the TGI (HL-60(TB) leukemia) was > 100 µM and the TGI (RXF 393 renal) was > 100 µM. The TGI (SK-OV-3 ovarian) was > 100 µM, the TGI (HOP-62 NSCLC) was > 100 µM and the TGI (SK-MEL-2 melanoma) was > 100 µM. The TGI (SK-MEL-28 melanoma) was > 100 µM, the TGI (SK-MEL-5 melanoma) was > 100 µM and the TGI (RPMI-8226 leukemia) was > 100 µM. The TGI (OVCAR-8 ovarian) was > 100 µM, the TGI (K-562 leukemia) was > 100 µM and the TGI (NCI-H522 lung) was > 100 µM. For the same molecule, the TGI (MOLT-4 leukemia) was > 100 µM, the TGI (IGROV1 ovarian) was > 100 µM and the TGI (LXFL 529 NSCLC) was > 100 µM. For the same molecule, the TGI (NCI-H23 lung) was > 100 µM, the TGI (DMS 114 small cell lung) was > 100 µM and the TGI (NCI-H226 lung) was > 100 µM. For the same molecule, the TGI (SF-295 CNS) was > 100 µM, the TGI (KM20L2 colon) was > 100 µM and the TGI (LOX IMVI melanoma) was > 100 µM. For the same molecule, the TGI (786-0 renal) was > 100 µM, the TGI (OVCAR-5 ovarian) was > 100 µM and the TGI (SF-268 CNS) was > 100 µM. For the same molecule, the TGI (SNB-19 CNS) was > 100 µM, the TGI (SN12C renal) was > 100 µM and the TGI (CCRF-CEM leukemia) was > 100 µM. For the same molecule, the TGI (SR leukemia) was > 100 µM, the TGI (UACC-62 melanoma) was > 100 µM and the TGI (M19-MEL melanoma) was > 100 µM. For the same molecule, the TGI (SNB-78 CNS) was > 100 µM, the TGI (DLD-1 colon) was > 100 µM and the TGI (SNB-75 CNS) was > 100 µM. The TGI (OVCAR-4 ovarian) was > 100 µM, the TGI (CAKI-1 renal) was > 100 µM and the TGI (MALME-3M melanoma) was > 100 µM. For the same molecule, the TGI (ACHN renal) was > 100 µM, the TGI (UO-31 renal) was > 100 µM and the TGI (EKVX NSCLC) was > 100 µM. For the same molecule, the TGI (HCC-2998 colon) was > 100 µM, the TGI (RXF-631 renal) was > 100 µM and the TGI (HT29 colon) was > 100 µM.
Work on `CC(C)(CN1CCCCC1)C(=O)CC(SCCN)c1ccc(Cl)cc1` (configuration not stated) yielded a TGI (DMS 273 small cell lung) of 4.96 µM, a TGI (A549 NSCLC) of 10.2 µM and a TGI (KM12 colon) of 5.23 µM. It also gave a TGI (NCI-H460 lung) of 5.43 µM, a TGI (HCT-116 colon) of 7.61 µM and a TGI (M14 melanoma) of 3.63 µM. The TGI (HCT-15 colon) was 4.53 µM, the TGI (XF 498 CNS) was 4.1 µM and the TGI (TK-10 renal) was 5.19 µM. The TGI (SF-539 CNS) was 4.21 µM, the TGI (OVCAR-3 ovarian) was 3.96 µM and the TGI (A498 renal) was 6.65 µM. It also gave a TGI (SW-620 colon) of 3.94 µM, a TGI (UACC-257 melanoma) of 7.41 µM and a TGI (U251 CNS) of 11.7 µM. For the same molecule, the TGI (RXF 393 renal) was 5.94 µM, the TGI (SK-OV-3 ovarian) was 7.83 µM and the TGI (HOP-62 NSCLC) was 12.8 µM. The TGI (SK-MEL-2 melanoma) was 3.32 µM, the TGI (SK-MEL-28 melanoma) was 13 µM and the TGI (SK-MEL-5 melanoma) was 3.25 µM. The TGI (RPMI-8226 leukemia) was 3.86 µM, the TGI (OVCAR-8 ovarian) was 5.45 µM and the TGI (K-562 leukemia) was > 100 µM. The TGI (NCI-H522 lung) was 4.8 µM, the TGI (MOLT-4 leukemia) was 4.72 µM and the TGI (IGROV1 ovarian) was 8.48 µM. It also gave a TGI (LXFL 529 NSCLC) of 3.33 µM, a TGI (NCI-H23 lung) of 5.8 µM and a TGI (DMS 114 small cell lung) of 3.43 µM. The TGI (NCI-H226 lung) was 10.1 µM, the TGI (SF-295 CNS) was 12.4 µM and the TGI (KM20L2 colon) was 5.43 µM. For the same molecule, the TGI (LOX IMVI melanoma) was 4.85 µM, the TGI (786-0 renal) was 3.21 µM and the TGI (OVCAR-5 ovarian) was 13.2 µM. The TGI (SF-268 CNS) was 9.36 µM, the TGI (SNB-19 CNS) was 4.54 µM and the TGI (SN12C renal) was 3.42 µM. It also gave a TGI (CCRF-CEM leukemia) of 5.19 µM, a TGI (UACC-62 melanoma) of 3.56 µM and a TGI (M19-MEL melanoma) of 7.39 µM. It also gave a TGI (SNB-78 CNS) of 8.9 µM, a TGI (DLD-1 colon) of 3.35 µM and a TGI (SNB-75 CNS) of 5.59 µM. It also gave a TGI (OVCAR-4 ovarian) of 10.1 µM, a TGI (CAKI-1 renal) of 5.85 µM and a TGI (MALME-3M melanoma) of 11.6 µM. It also gave a TGI (ACHN renal) of 9.85 µM, a TGI (UO-31 renal) of 13.3 µM and a TGI (COLO 205 colon) of 3.24 µM. It also gave a TGI (EKVX NSCLC) of 4.53 µM, a TGI (HCC-2998 colon) of 3.76 µM and a TGI (RXF-631 renal) of 14.3 µM. For the same molecule, the TGI (HT29 colon) was 5.07 µM.
